Reference: patent US7674819B2 (Warner-Lambert Company LLC, priority 2005, dated 2010)
Where a chain is given by its changes, count along the chain named. Like-named read-outs stand apart in the source and are kept apart here.

How the values were obtained:
[1] = target: T1, hAR (Homo sapiens, UniProt P10275); experiment: Competitive binding of 3H-DHT to baculovirus/Sf9 generated hAR extracts; details: one hour at 4° C., mean of multiple tests
T1 sequence (P10275 1-920): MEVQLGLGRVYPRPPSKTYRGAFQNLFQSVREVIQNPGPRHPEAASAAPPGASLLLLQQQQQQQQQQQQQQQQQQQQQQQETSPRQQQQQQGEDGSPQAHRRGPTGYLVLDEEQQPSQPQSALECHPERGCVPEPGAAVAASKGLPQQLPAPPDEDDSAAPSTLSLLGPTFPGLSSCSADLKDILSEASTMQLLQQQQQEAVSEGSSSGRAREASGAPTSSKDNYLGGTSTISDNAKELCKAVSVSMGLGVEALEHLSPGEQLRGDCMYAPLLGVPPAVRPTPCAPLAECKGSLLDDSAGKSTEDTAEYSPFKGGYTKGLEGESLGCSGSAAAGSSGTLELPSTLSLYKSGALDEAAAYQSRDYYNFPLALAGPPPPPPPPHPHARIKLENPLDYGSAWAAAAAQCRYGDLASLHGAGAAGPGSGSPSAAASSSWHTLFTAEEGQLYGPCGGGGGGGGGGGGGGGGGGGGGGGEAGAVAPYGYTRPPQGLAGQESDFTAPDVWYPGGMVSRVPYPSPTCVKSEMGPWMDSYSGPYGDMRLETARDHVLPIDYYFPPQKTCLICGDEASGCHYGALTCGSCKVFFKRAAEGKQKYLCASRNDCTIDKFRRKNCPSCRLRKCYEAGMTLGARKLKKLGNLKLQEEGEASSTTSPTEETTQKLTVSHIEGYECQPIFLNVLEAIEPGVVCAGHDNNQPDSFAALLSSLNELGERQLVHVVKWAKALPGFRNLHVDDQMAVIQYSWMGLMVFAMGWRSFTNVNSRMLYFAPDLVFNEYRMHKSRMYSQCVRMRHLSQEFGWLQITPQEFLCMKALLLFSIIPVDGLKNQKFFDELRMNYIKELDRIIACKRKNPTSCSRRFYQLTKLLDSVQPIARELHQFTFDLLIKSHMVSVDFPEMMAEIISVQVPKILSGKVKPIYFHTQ
Summary of the method: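 Baculovirus/Sf9-expressed hAR extract incubated with test compound, hydroxylapatite and 1 nM 3H-DHT tracer for 1 h at 4° C, then washed free of unbound tracer. Affinity given as concentration inhibiting half of maximal 3H-DHT binding.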

[2] = target: T2, androgen receptor (Homo sapiens, UniProt P10275); experiment: AR Antagonist Cell Assay (MDA-MB453-MMTV clone 54-19, luciferase reporter); format: cell-based; details: inhibition of induction by DHT (final concentration at 100 μM), 17 hr, compound 0.32-1000 nM, mean of multiple tests
T2 sequence (P10275 1-920 Q868H): T1 sequence (P10275 1-920) with Q868H
Experimental: The compounds ability to antagonize the effects of androgen on the androgen receptor were determined in a whole cell assay as described immediately below.
Experimental Procedure for AR Antagonist Cell Assay
This cell line is a stable transfected cell line with MDA-MB453 cell background (a human breast tumor cell line expressing androgen receptor). A MMTV minimal promoter containing ARE was first cloned in front of a firefly luciferase reporter gene. Then the cascade was cloned into transfection vector pUV120puro. […] Puromycin resistant stable cell line was selected.
Cell Culture Media and Reagents:
Plating medium: DMEM (phenol red free), 10% charcoal treated HyClone serum, 1% L-glutamine
Assay medium: DMEM (phenol red free), 1% charcoal treated HyClone serum, 1% L-glutamine, 1% penicillin/streptomycin
Cells are maintained in culture medium, splitting cells when they reach 80-90% confluence
To test compounds, 10,000 cells/well are plated to opaque 96 cell culture plate in 100 ul/well plating medium, culture for overnight at 37° C. in cell culture incubator
Add 10 ul/well freshly prepared DHT (final concentration at […]) to each well, incubate at 37° C. for 17 hr (overnight)
Add 50 ul/well 3× luciferase buffer, incubate at room temperature for 5 minutes, then count on Luminometer
The results are reported as the mean of multiple tests described below (the numbers of tests are indicated in the footnote). N.D. denotes that the compound was not tested.

[3] = IC50, concentration at which one half of maximum binding of 1 nM 3H-DHT to hAR is inhibited
[4] = concentration at which one half of maximum binding of 1 nM 3H-DHT to hAR is inhibited, read-out: IC50

Row | Structure (SMILES) | IC50 [1, 3] | IC50 [2] | IC50 [1, 4] | IC50 ([2]; read-out: IC50)
1 | CC1(C)CN(Cc2ccc(O)cc2)C(=O)C1Oc1ccc(C#N)c(C(F)(F)F)c1 (single isomer, unassigned) [Example 9, 4-[1-(4-Hydroxy-benzyl)-4,4-dimethyl-2-oxo-pyrrolidin-3-yloxy]-2-trifluoromethyl-benzonitrile] | 0.018 µM | 0.046 µM |  | 
2 | CC1(C)CN(Cc2ccc(F)cc2)C(=O)C1Oc1ccc(C#N)c(C(F)(F)F)c1 (stereo not drawn) [Example 17, 4-[1-(4-Fluoro-benzyl)-4,4-dimethyl-2-oxo-pyrrolidin-3-yloxy]-2-trifluoromethyl-benzonitrile] | 0.144 µM | 0.214 µM |  | 
3 | CC1(C)CN(Cc2cccc(OC(F)F)c2)C(=O)C1Oc1ccc(C#N)c(C(F)(F)F)c1 (stereo not drawn) [Example 42, 4-[1-(3-Difluoromethoxy-benzyl)-4,4-dimethyl-2-oxo-pyrrolidin-3-yloxy]-2-trifluoromethyl-benzonitrile] |  |  | 0.12 µM | 0.219 µM
4 | CCS(=O)(=O)N1CC(C)(C)C(Oc2ccc(C#N)c(C(F)(F)F)c2)C1=O (stereo not drawn) [Example 78, 4-(1-Ethanesulfonyl-4,4-dimethyl-2-oxo-pyrrolidin-3-yloxy)-2-trifluoromethyl-benzonitrile] |  |  | 0.103 µM | 0.246 µM
5 | COc1cccc(S(=O)(=O)N2CC(C)(C)C(Oc3ccc(C#N)c(C(F)(F)F)c3)C2=O)c1 (stereo not drawn) [Example 74, 4-[1-(3-Methoxy-benzenesulfonyl)-4,4-dimethyl-2-oxo-pyrrolidin-3-yloxy]-2-trifluoromethyl-benzonitrile] |  | 0.096 µM | 0.106 µM | 
6 | CC1(C)CN(S(C)(=O)=O)C(=O)C1Oc1ccc(C#N)c(C(F)(F)F)c1 (single isomer, unassigned) [Example 100, 4-(1-Methanesulfonyl-4,4-dimethyl-2-oxo-pyrrolidin-3-yloxy)-2-trifluoromethyl-benzonitrile] | 0.012 µM | 0.012 µM |  | 
7 | CC1(C)CN(S(=O)(=O)C2CC2)C(=O)C1Oc1ccc(C#N)c(C(F)(F)F)c1 (single isomer, unassigned) [Example 100C, 4-(1-Cyclopropanesulfonyl-4,4-dimethyl-2-oxo-pyrrolidin-3-yloxy)-2-trifluoromethyl-benzonitrile] | 0.059 µM | 0.038 µM |  | 
8 | CC1(C)CN(Cc2nnc(-c3ccc(O)cc3O)o2)C(=O)C1Oc1ccc(C#N)c(C(F)(F)F)c1 (stereo not drawn) [Example 123, 4-{1-[5-(2,4-Dihydroxy-phenyl)-[1,3,4]oxadiazol-2-ylmethyl]-4,4-dimethyl-2-oxo-pyrrolidin-3-yloxy}-2-trifluoromethyl-benzonitrile] | 0.061 µM |  |  | 0.176 µM
9 | Cc1ccc(-c2nnc(CN3CC(C)(C)C(Oc4ccc(C#N)c(C(F)(F)F)c4)C3=O)o2)s1 (stereo not drawn) [Example 117, 4-{4,4-Dimethyl-1-[5-(5-methyl-thiophen-2-yl)-[1,3,4]oxadiazol-2-ylmethyl]-2-oxo-pyrrolidin-3-yloxy}-2-trifluoromethyl-benzonitrile] |  |  | 0.259 µM | 0.117 µM
10 | C[C@@H](c1ccc(F)cc1)N1CC(C)(C)[C@@H](Oc2ccc(C#N)c(C(F)(F)F)c2)C1=O (racemic) [Example 71, (±)-4-{1-[1-(4-Fluoro-phenyl)-ethyl]-4,4-dimethyl-2-oxo-pyrrolidin-3-yloxy}-2-trifluoromethyl-benzonitrile] |  | 0.006 µM | 0.104 µM | 
11 | CC1(C)CN(Cc2nnc(-c3ccccc3)o2)C(=O)C1Oc1ccc(C#N)c(C(F)(F)F)c1 (stereo not drawn) [Example 56, 4-[4,4-Dimethyl-2-oxo-1-(5-phenyl-[1,3,4]oxadiazol-2-ylmethyl)-pyrrolidin-3-yloxy]-2-trifluoromethyl-benzonitrile] | 0.171 µM | 0.735 µM |  | 
12 | CC1(C)CN(Cc2ccccc2)C(=O)C1Oc1ccc(C#N)c(C(F)(F)F)c1 (single isomer, unassigned; (+)) [Example 6, (+)-4-(1-Benzyl-4,4-dimethyl-2-oxo-pyrrolidin-3-yloxy)-2-trifluoromethyl-benzonitrile] | 0.031 µM | 0.136 µM |  | 
13 | CC1(C)CN(S(=O)(=O)c2ccsc2)C(=O)C1Oc1ccc(C#N)c(C(F)(F)F)c1 (stereo not drawn) [Example 84, 4-[4,4-Dimethyl-2-oxo-1-(thiophene-3-sulfonyl)-pyrrolidin-3-yloxy]-2-trifluoromethyl-benzonitrile] | 0.085 µM | 0.055 µM |  | 
14 | CC1(C)CN(C(=O)Cc2ccccc2)C(=O)C1Oc1ccc(C#N)c(C(F)(F)F)c1 (stereo not drawn) [Example 101, 4-(4,4-Dimethyl-2-oxo-1-phenylacetyl-pyrrolidin-3-yloxy)-2-trifluoromethyl-benzonitrile] |  |  | 0.174 µM | 0.083 µM
15 | CC1(C)CN(Cc2ccc3ccccc3n2)C(=O)C1Oc1ccc(C#N)c(C(F)(F)F)c1 (stereo not drawn) [Example 54, 4-(4,4-Dimethyl-2-oxo-1-quinolin-2-ylmethyl-pyrrolidin-3-yloxy)-2-trifluoromethyl-benzonitrile] |  |  | 0.217 µM | > 1 µM
16 | CC1(C)CN(Cc2nc3ccccc3s2)C(=O)C1Oc1ccc(C#N)c(C(F)(F)F)c1 (stereo not drawn) [Example 40, 4-(1-Benzothiazol-2-ylmethyl-4,4-dimethyl-2-oxo-pyrrolidin-3-yloxy)-2-trifluoromethyl-benzonitrile] | 0.043 µM | 0.05 µM |  | 
17 | C[C@@H](c1ccccc1)N1CC(C)(C)C(Oc2ccc(C#N)c(C(F)(F)F)c2)C1=O (mixture of isomers) [Example 69, (+)-4-[4,4-Dimethyl-2-oxo-1-(1-phenyl-ethyl)-pyrrolidin-3-yloxy]-2-trifluoromethyl-benzonitrile] |  |  | 0.258 µM | 0.331 µM
18 | CC1(C)CN(C(=O)c2ccccc2)C(=O)C1Oc1ccc(C#N)c(C(F)(F)F)c1 (single isomer, unassigned; (+)) [Example 105, (+)-4-(1-Benzoyl-4,4-dimethyl-2-oxo-pyrrolidin-3-yloxy)-2-trifluoromethyl-benzonitrile] |  | 0.022 µM | 0.252 µM | 
